Measured values taken from PMC10115881, “Disrupting the α-synuclein-ESCRT interaction with a peptide inhibitor mitigates neurodegeneration in preclinical models of Parkinson’s disease” (Nature Communications, 2023).

Tests used:
[1] = test system: A53T a-syn oligomers; assay: Split-YFP PCA/FACS screen of A53T a-syn oligomers; type: cell-based, human
From the text: We used a lentiviral library of 50,549 7-mer peptides enriched in PPI motifs[13] on a green fluorescent protein (GFP) scaffold (Fig. 1A). We infected cells in a pooled format and the amino acid sequence of each peptide served as its own barcode. By using a low multiplicity of infection followed by puromycin selection, each infected cell expressed one unique GFP-peptide. We screened for peptides that reduced a-syn-mediated cytotoxicity or a-syn oligomers in parallel (Fig. 1A). To cause cytotoxicity relevant to PD, we induced proteostatic stress in HEK293 cells by inhibiting the proteasome with MG132 and overexpressing human WT a-syn associated with idiopathic PD in one screen or the more toxic mutant A53T a-syn associated with familial PD in a second screen. This combination of a-syn overexpression and pharmacological proteasome inhibition led to death of most cells, with only those that expressed a protective peptide surviving. By extracting genomic DNA from the surviving cells and amplifying the peptide coding sequences, we identified the protective peptides (Fig. 1A). To detect a-syn oligomers, we used a protein fragment complementation assay (PCA) of a-syn oligomerization in HEK293 cells. In this assay, human A53T a-syn was fused to either the C- or N-terminal half of yellow fluorescent protein (YFP). No fluorescence is detectable while a-syn exists in monomers but, when a-syn oligomerizes, the two halves of YFP come in close enough proximity to form a functional, spontaneously fluorescent protein. […] Our screens yielded 10 hits (Table S1). The hit with the most reads (i.e., the most abundant) was the same peptide in all screens: IPIQLKA (named PDpep1) (Table S1). We validated the cytoprotective effects of PDpep1 in HEK293 cells overexpressing WT or A53T a-syn (Figs. 1B, S1A), as well as its ability to reduce WT or A53T a-syn oligomers in a luciferase-based PCA[18]–[20] compared to a scrambled control peptide (Figs. 1C, S1B).
HEK293T cells (ATCC, CRL-3216) were maintained in DMEM supplemented with 10% FBS and 1% pen/strep/glutamine, and the appropriate selection antibiotics when required. Lentiviruses were made in a 15 cm dish format by transfecting packaging cells (HEK293T) with a three-plasmid system (expression vector, psPAX2 and pMD2.G) and using Polyjet DNA transfection reagent (FroggaBio, SL100688.1). Viral transduction of HEK293T cells were performed with a multiplicity of infection (MOI) of 0.3. Infected cells were selected in puromycin-containing medium to eliminate uninfected cells and three aliquots of cells were collected for sampling of the initial (T0) cell population. Cells were treated with MG132 at concentrations of 0, 10, 25, or 50 µM. For the cell viability screen, surviving cells were collected and gDNA was extracted for identification of peptide inhibitors of cell toxicity. For the inhibition of a-syn aggregation screen, a protein fragment complementation assay (PCA) was used by transfecting cells with split YFP-a-syn constructs following stable expression of the peptides. Cells were sorted based on their YFP fluorescence intensities with a FACSVantage SE cell sorter (BD Bioscience) and gDNA was extracted for identification of peptides.
Cells were harvested by trypsin treatment and centrifuged at 500 × g for 5 min. The pellet was resuspended in ice-cold PBS and centrifuged again. The pellet was then resuspended at a concentration of 4 × 10^6 cells/ml in the sorting buffer, which is PBS containing 100 Kunitz DNase I/ml, 10 μg/ml propidium iodide (Sigma), and 2% FBS. The cells were then sent through a 40 μm filter to remove large clumps and loaded into either a FACScan Flow Cytometer (BD Bioscience) for cell analysis or a FACSVantage SE cell sorter (BD Bioscience) for cell sorting. The cells with positive propidium iodide staining (i.e., dead cells) were first eliminated from the analysis. […]

[2] = test system: endolysosomal flux in SNCA triplication fibroblasts; assay: Endolysosomal flux assay, confocal microscopy, SNCA triplication fibroblasts; type: cell-based, human
Experimental: Flux via the endolysosomal pathway was measured with the Lysosome Intracellular Activity Assay Kit which was purchased from Abcam (ab234622) and used according to the manufacturer’s instructions. The kit provides a proprietary lysosome-specific self-quenched substrate which has low background fluorescence, high signal-to-background ratio, and is pH insensitive. In the assay, the substrate is taken up by cells and acts as endocytic cargo which is degraded within an endolysosomal vesicle. Following degradation, the fluorescence signal recovered from the substrate is proportional to the intracellular lysosomal activity. The activity can be measured by fluorescence microscopy or FACS. The assay was performed with HEK293T cells or SNCA triplication fibroblasts (obtained from NINDS Human Genetics Resource Center DNA and Cell Line Repository; NINDS Repository sample number ND27760). Cells were maintained in DMEM supplemented with 10% FBS and 1% pen/strep/glutamine. Cell medium was replaced with fresh medium containing DMSO, Leupeptin, or Bafilomycin A1 and incubated for 1 h at 37 °C with 5% CO2. Self-quenched substrate was added into each condition and incubated for 1 h (HEK293T cells) or overnight (SNCA triplication fibroblasts) at 37 °C with 5% CO2. […] For HEK293T cells, cells were resuspended in PBS containing DMSO or Leupeptin and analyzed by FACS. […]

Substance: IPIQLKA [PDpep1, initial screen hit peptide IPIQLKA]
- Reads GFP High [1]: 12
- Reads GFP Inter [1]: 2853
- Reads GFP Neg [1]: 15556
- Reads Ratio [1]: 1,218.98

Substance: DEEIERQLKALG [PDpep1.3]
- Effect on endolysosomal flux in fibroblasts [2]: increased endolysosomal flux
